Measured values published in US8785156B2, “TLE3 as a marker for chemotherapy” (Clarient Diagnostic Services, Inc., priority 2007, dated 2014).

Tested on: ovarian cancer patients (UAB cohort)
Assay: Kaplan-Meier recurrence curves, University of Alabama at Birmingham (UAB) ovarian cancer cohort, patients classified by TLE3 antibody staining
Type: in vivo, human
Details: all patients received paclitaxel, most also platinum chemotherapy (carboplatin or cisplatin)
Text: All patients received paclitaxel. Most patients also received platinum chemotherapy (carboplatin or cisplatin). Recurrence data from TLE3-positive and TLE3-negative patients in this subset were used to generate the top and bottom curves, respectively. As shown in the Figure, antibody binding to the TLE3 marker correlated with prognosis in these treated patients (HR=0.64, p<0.049).
Kaplan-Meier recurrence curves that were generated using patients in the RP breast cancer cohort that received chemotherapy are consistent with this prediction model (see FIG. 6, HR=0.194, p=0.010). Kaplan-Meier recurrence curves that were generated using patients in the UAB ovarian cancer cohort that received chemotherapy are also consistent with this prediction model (see FIG. 18, HR=0.64, p=0.049).

CC(=O)O[C@H]1C(=O)[C@@]2(C)[C@H]([C@H](OC(=O)c3ccccc3)[C@]3(O)C[C@H](OC(=O)[C@H](O)[C@@H](NC(=O)c4ccccc4)c4ccccc4)C(C)=C1C3(C)C)[C@]1(OC(C)=O)CO[C@@H]1C[C@@H]2O [paclitaxel]
HR (recurrence, TLE3-positive vs TLE3-negative patients): 0.64
